Laboratory results taken from patent US20100093722A1, “HETEROARYL AND PHENYL SUBSTITUTED THIENO[2,3-d]PYRIMIDINES AND THEIR USE AS ADENOSINE A2a RECEPTOR ANTAGONISTS” (priority 2008, published 2010).

How the values were obtained:
[1] = target: T1, human adenosine A1 receptor (Homo sapiens, UniProt P30542); assay: Adenosine A1 Receptor Functional Assay (A1GAL2); assay type: cell-based; conditions: CHO-K1 cells overexpressing human A1, cAMP inducible beta-galactosidase reporter, 4 nM r-PIA/1 uM Forskolin challenge
T1 construct: expressed in transfected cells; host or cells: CHO-K1
T1 sequence (P30542 1-326): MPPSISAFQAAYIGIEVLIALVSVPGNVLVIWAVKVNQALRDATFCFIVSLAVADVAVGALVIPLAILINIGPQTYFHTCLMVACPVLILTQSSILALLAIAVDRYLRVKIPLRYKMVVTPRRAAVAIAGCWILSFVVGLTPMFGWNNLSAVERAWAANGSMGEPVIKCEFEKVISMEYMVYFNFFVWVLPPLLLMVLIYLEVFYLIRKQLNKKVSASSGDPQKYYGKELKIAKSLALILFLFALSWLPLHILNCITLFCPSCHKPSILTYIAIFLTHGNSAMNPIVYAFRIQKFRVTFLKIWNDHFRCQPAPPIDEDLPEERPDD
Method: Adenosine A1 Receptor Functional Assay (A1GAL2)
To initiate the functional assay, cryopreserved CHO-K1 cells overexpressing the human adenosine A1 receptor and containing a cAMP inducible beta-galactosidase reporter gene were thawed, centrifuged, DMSO containing media removed, and then seeded with fresh culture media into clear 384-well tissue culture treated plates (BD #353961) at a concentration of 10K cells/well. Prior to assay, these plates were cultured for two days at 37+ C., 5% CO2, 90% Rh. On the day of the functional assay, culture media was removed and replaced with 45 uL assay medium (Hams/F-12 Modified (Mediatech #10-080CV) supplemented w/0.1% BSA). Test compounds were diluted and 11 point curves created at a 1000× concentration in 100% DMSO. Immediately after addition of assay media to the cell plates, 50 nL of the appropriate test compound antagonist or agonist control curves were added to cell plates using a Cartesian Hummingbird. Compound curves were allowed to incubate at room temperature on cell plates for approximately 15 minutes before addition of a 4 nM r-PIA (Sigma P4532)/1 uM Forskolin (Sigma F3917) agonist challenge (5 uL volume). A control curve of r-PIA in 1 uM Forskolin, a DMSO/Media control, and a single dose of Forskolin were also included on each plate. After additions, cell plates were allowed to incubate at 37° C., 5% CO2, 90% Rh for 5.5-6 hours. After incubation, media was removed, and cell plates were washed 1× 50 uL with DPBS w/o Ca & Mg (Mediatech 21-031-CV). Into dry wells, 20 uL of 1× Reporter Lysis Buffer (Promega E3971 (diluted in dH2O from 5× stock)) was added to each well and plates frozen at −20° C. overnight. For β-galactosidase enzyme calorimetric assay, plates were thawed out at room temperature and 20 μL 2× assay buffer (Promega) was added to each well. Color was allowed to develop at 37° C., 5% CO2, 90% Rh for 1-1.5 h or until reasonable signal appeared. The calorimetric reaction was stopped with the addition of 60 μL/well 1M sodium carbonate. Plates were counted at 405 nm on a SpectraMax Microplate Reader (Molecular Devices). Data was analyzed in Microsoft Excel and IC/EC50 curves were fit using a standardized macro.

[2] = target: T2, human adenosine A2a receptor (Homo sapiens, UniProt P29274); assay: Adenosine A2a Receptor Functional Assay (A2AGAL2); assay type: cell-based; conditions: CHO-K1 cells overexpressing human A2a, cAMP inducible beta-galactosidase reporter, 15 nM NECA agonist challenge
T2 construct: expressed in transfected cells; host or cells: CHO-K1
Method: Adenosine A2a Receptor Functional Assay (A2AGAL2)
To initiate the functional assay, cryopreserved CHO-K1 cells overexpressing the human adenosine A2a receptor and containing a cAMP inducible beta-galactosidase reporter gene were thawed, centrifuged, DMSO containing media removed, and then seeded with fresh culture media into clear 384-well tissue culture treated plates (BD #353961) at a concentration of 10K cells/well. Prior to assay, these plates were cultured for two days at 37° C., 5% CO2, 90% Rh. On the day of the functional assay, culture media was removed and replaced with 45 uL assay medium (Hams/F-12 Modified (Mediatech #10-080CV) supplemented w/0.1% BSA). Test compounds were diluted and 11 point curves created at a 1000× concentration in 100% DMSO. Immediately after addition of assay media to the cell plates, 50 nL of the appropriate test compound antagonist or agonist control curves were added to cell plates using a Cartesian Hummingbird. Compound curves were allowed to incubate at room temperature on cell plates for approximately 15 minutes before addition of a 15 nM NECA (Sigma E2387) agonist challenge (5 uL volume). A control curve of NECA, a DMSO/Media control, and a single dose of Forskolin (Sigma F3917) were also included on each plate. After additions, cell plates were allowed to incubate at 37° C., 5% CO2, 90% Rh for 5.5-6 hours. After incubation, media was removed, and cell plates were washed 1× 50 uL with DPBS w/o Ca & Mg (Mediatech 21-031-CV). Into dry wells, 20 uL of 1× Reporter Lysis Buffer (Promega E3971 (diluted in dH2O from 5× stock)) was added to each well and plates frozen at −20° C. overnight. For β-galactosidase enzyme calorimetric assay, plates were thawed out at room temperature and 20 μL 2× assay buffer (Promega) was added to each well. Color was allowed to develop at 37° C., 5% CO2, 90% Rh for 1-1.5 h or until reasonable signal appeared. The calorimetric reaction was stopped with the addition of 60 μL/well 1M sodium carbonate. Plates were counted at 405 nm on a SpectraMax Microplate Reader (Molecular Devices). Data was analyzed in Microsoft Excel and IC/EC50 curves were fit using a standardized macro.

T2 sequence (P29274 whole entry): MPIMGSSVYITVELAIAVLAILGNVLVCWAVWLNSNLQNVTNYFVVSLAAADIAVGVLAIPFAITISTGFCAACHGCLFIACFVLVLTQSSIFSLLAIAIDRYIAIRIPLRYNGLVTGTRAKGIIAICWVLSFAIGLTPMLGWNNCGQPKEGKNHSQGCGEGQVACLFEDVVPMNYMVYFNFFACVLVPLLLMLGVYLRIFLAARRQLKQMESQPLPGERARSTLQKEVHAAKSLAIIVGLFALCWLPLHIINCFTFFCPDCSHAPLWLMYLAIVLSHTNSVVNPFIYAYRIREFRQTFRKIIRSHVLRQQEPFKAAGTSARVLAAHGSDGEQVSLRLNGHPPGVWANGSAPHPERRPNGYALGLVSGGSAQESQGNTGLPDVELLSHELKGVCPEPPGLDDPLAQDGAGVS

N#Cc1cccc(-c2nc(N)c3cc(Cc4cccnc4N4CCOCC4)sc3n2)c1 [Example 27, 3-[4-Amino-6-(2-morpholin-4-yl-pyridin-3-ylmethyl)-thieno[2,3-d]pyrimidin-2-yl]-benzonitrile]
Ki [1]: 592 nM | Ki [2]: 39.8 nM

N#Cc1cccc(-c2nc(N)c3cc(C(O)c4cccnc4)sc3n2)c1 (stereo not shown) [Example 31, 3-[4-Amino-6-(hydroxy-pyridin-3-yl-methyl)-thieno[2,3-d]pyrimidin-2-yl]-benzonitrile]
Ki [1]: 285 nM | Ki [2]: 16 nM

N#Cc1cccc(-c2nc(N)c3cc(Cc4cccnc4N4CCCCC4)sc3n2)c1 [Example 20, 3-[4-Amino-6-(3,4,5,6-tetrahydro-2H-[1,2′]bipyridinyl-3′-ylmethyl)-thieno[2,3-d]pyrimidin-2-yl]-benzonitrile]
Ki [1]: 292 nM | Ki [2]: 45.3 nM

Nc1nc(-c2ccccc2)nc2sc(Cc3ccccn3)cc12 [Example 16, 2-Phenyl-6-pyridin-2-ylmethyl-thieno[2,3-d]pyrimidin-4-ylamine]
Ki [1]: 48.7 nM | Ki [2]: 5.71 nM

Nc1nc(-c2ccccc2)nc2sc(Cc3ccc(Cl)nc3)cc12 [Example 3, 6-(6-Chloro-pyridin-3-ylmethyl)-2-phenyl-thieno[2,3-d]pyrimidin-4-ylamine]
Ki [1]: 438 nM | Ki [2]: 47.2 nM

Nc1nc(-c2cccc(F)c2)nc2sc(Cc3ccc(Cl)nc3)cc12 [Example 40, 6-(6-Chloro-pyridin-3-ylmethyl)-2-(3-fluoro-phenyl)-thieno[2,3-d]pyrimidin-4-ylamine]
Ki [1]: 443 nM | Ki [2]: 442 nM

N#Cc1cccc(-c2nc(N)c3cc(C(O)c4cccnc4F)sc3n2)c1 (stereo not shown) [Example 29, 3-{4-Amino-6-[(2-fluoro-pyridin-3-yl)-hydroxy-methyl]-thieno[2,3-d]pyrimidin-2-yl}-benzonitrile]
Ki [1]: 145 nM | Ki [2]: 5.09 nM

N#Cc1cccc(-c2nc(N)c3cc(C(O)c4cccnc4N4CCOCC4)sc3n2)c1 (stereo not shown) [Example 13, 3-{4-Amino-6-[hydroxy-(2-morpholin-4-yl-pyridin-3-yl)-methyl]-thieno[2,3-d]pyrimidin-2-yl}-benzonitrile]
Ki [1]: 445 nM | Ki [2]: 171 nM

COc1cccc(C(O)c2cc3c(N)nc(-c4cccc(C#N)c4)nc3s2)n1 (stereo not shown) [Example 11, 3-{4-Amino-6-[hydroxy-(6-methoxy-pyridin-2-yl)-methyl]-thieno[2,3-d]pyrimidin-2-yl}-benzonitrile]
Ki [1]: 153 nM | Ki [2]: 29.3 nM

N#Cc1cccc(-c2nc(N)c3cc(C(O)c4ccc(N5CCCCC5)nc4)sc3n2)c1 (stereo not shown) [Example 12, 3-{4-Amino-6-[hydroxy-(3,4,5,6-tetrahydro-2H-[1,2′]bipyridinyl-5′-yl)-methyl]-thieno[2,3-d]pyrimidin-2-yl}-benzonitrile]
Ki [1]: 1280 nM | Ki [2]: 201 nM

N#Cc1cccc(-c2nc(N)c3cc(C(O)c4cccnc4N4CCCCC4)sc3n2)c1 (stereo not shown) [Example 17, 3-{4-Amino-6-[hydroxy-(3,4,5,6-tetrahydro-2H-[1,2′]bipyridinyl-3′-yl)-methyl]-thieno[2,3-d]pyrimidin-2-yl}-benzonitrile]
Ki [1]: 277 nM | Ki [2]: 32 nM

N#Cc1cccc(-c2nc(N)c3cc(C(O)c4cccnc4N4CCCC4)sc3n2)c1 (stereo not shown) [Example 14, 3-{4-Amino-6-[hydroxy-(2-pyrrolidin-1-yl-pyridin-3-yl)-methyl]-thieno[2,3-d]pyrimidin-2-yl}-benzonitrile]
Ki [1]: 1290 nM | Ki [2]: 1040 nM

COc1ncccc1C(=O)c1cc2c(N)nc(-c3cccc(C#N)c3)nc2s1 [Example 39, 3-[4-Amino-6-(2-methoxy-pyridine-3-carbonyl)-thieno[2,3-d]pyrimidin-2-yl]-benzonitrile]
Ki [1]: 289 nM | Ki [2]: 53 nM

COc1ccc(Cc2cc3c(N)nc(-c4cccc(C#N)c4)nc3s2)cn1 [Example 37, 3-[4-Amino-6-(6-methoxy-pyridin-3-ylmethyl)-thieno[2,3-d]pyrimidin-2-yl]-benzonitrile]
Ki [1]: 507 nM | Ki [2]: 64.3 nM
